Data from patent publication US10357514B2, “Treatment of cancer using anti-CD19 Chimeric Antigen Receptor” (The Trustees of the University of Pennsylvania, priority 2014, dated 2019).
Entries after “also recorded” stand apart in the source; their conditions may differ. Where two headings read alike, the source gives them in different places. Marks after values point to notes of the source that are not given here.

What was measured:
[1] = test system: A/H3N2 strain A/Victoria/361/11; test: HI titer and seroconversion to heterologous influenza strain; format: in vivo, human; conditions: for Percentage of subjects who seroconvert to heterologous strain A/H3N2 A/Victoria/361/11: 4 weeks after seasonal influenza vaccination
[2] = Adverse event assessment in elderly volunteers, randomized placebo-controlled trial; conditions: for Treatment-related AE incidence: Blood cholesterol increased / Treatment-related AE incidence: Conjunctivitis / Treatment-related AE incidence: Diarrhea / Treatment-related AE incidence: Dry mouth / Treatment-related AE incidence: Dyspepsia / Treatment-related AE incidence: Erythema / Treatment-related AE incidence: Fatigue / Treatment-related AE incidence: Headache / Treatment-related AE incidence: Insomnia / Treatment-related AE incidence: Limb discomfort / Treatment-related AE incidence: Low density lipoprotein increased / Treatment-related AE incidence: Mouth ulceration / Treatment-related AE incidence: Mucosal inflammation / Treatment-related AE incidence: Neutropenia / Treatment-related AE incidence: Oral pain / Treatment-related AE incidence: Paresthesia oral / Treatment-related AE incidence: Pruritus / Treatment-related AE incidence: Stomatitis / Treatment-related AE incidence: Thrombocytopenia / Treatment-related AE incidence: Tongue ulceration / Treatment-related AE incidence: Urinary tract infection / Treatment-related AEs: Patients with AE(s) / Treatment-related AEs: Total AE(s): N = 53
[3] = Energy and exercise questionnaires one year after dosing; format: in vivo, human; conditions: 0.5 mg daily cohort
[4] = test system: PD-1 positive CD4 and CD8 T cells; test: Immunophenotyping of PBMC by flow cytometry; format: in vivo, human
[5] = test system: 3 influenza vaccine strains; test: Primary endpoint: HI GMT ratio relative to placebo in at least 2 out of 3 influenza vaccine strains; format: in vivo, human; conditions: for primary endpoint (>=1.2-fold GMT increase relative to placebo in at least 2 of 3 strains): ITT population
From the text: The primary analysis of geometric mean titer ratios was done using a normal Bayesian regression model with non-informative priors. This model was fitted to each antibody titer on the log scale. The primary outcome in each model was the Day 84 measurement. The Day 63 measurement was included in the outcome vector. The model fitted using SAS 9.2 proc mixed with the prior statement. The covariance structure of the matrix was considered as unstructured (option type=UN). A flat prior was used. For the secondary analysis of seroconversion rates, logistic regression was used.
The intention to treat population was defined as all subjects who received at least one full dose of study drug and who had no major protocol deviations impacting efficacy data. 199 out of the total of 218 subjects enrolled in the study were in the intention to treat population.
The ability of RAD001 to improve immune function in elderly volunteers was evaluated by measuring the serologic response to the 2012 seasonal influenza vaccine. The hemagglutination inhibition (HI) geometric mean titers (GMT) to each of the 3 influenza vaccine strains at baseline and 4 weeks after influenza vaccination are provided in Table 10. The primary analysis variable was the HI GMT ratio (4 weeks post vaccination/baseline). […] This endpoint was chosen because a 1.2-fold increase in the influenza GMT ratio induced by the MF-59 vaccine adjuvant was associated with a decrease in influenza illness (Iob, A et al. (2005) Epidemiol Infect 133:687-693).
Elderly volunteers >=65 years of age were randomized to one of the 3 RAD001 treatment groups (50 subjects per arm) or placebo (20 subjects per arm). […] Response to influenza vaccination was assessed by measuring the geometric mean titers (GMTs) by hemagglutination inhibition assay to the 3 influenza strains (H1N1, H3N2 and B influenza subtypes) in the influenza vaccine 4 weeks after vaccination. […] Antibody titers to 7 of the serotypes were measured in our subjects.

[6] = test system: PD-1-positive CD4 and CD8 and PD-1-negative CD4 T cells; test: FACS analysis of PD-1 on T cells in PBMC samples of subjects given RAD001; format: in vivo, human
[7] = cited from earlier work
[8] = week 6, pooled cohort, adjusted for baseline PD-1
[9] = week 12, pooled cohort, adjusted for baseline PD-1
[10] = week 12, 0.5 mg/Day, 5 mg/Week and 20 mg/Week cohorts

**Q.** What does the source list for `CO[C@H]1C[C@@H]2CC[C@@H](C)[C@@](O)(O2)C(=O)C(=O)N2CCCC[C@H]2C(=O)O[C@H]([C@H](C)C[C@@H]2CC[C@@H](OCCO)[C@H](OC)C2)CC(=O)[C@H](C)/C=C(\C)[C@@H](O)[C@@H](OC)C(=O)[C@H](C)C[C@H](C)/C=C/C=C/C=C/1C` [RAD001, (1R,9S,12S,15R,16E,18R,19R,21R,23S,24E,26E,28E,30S,32S,35R)-1,18-dihydroxy-12-{(1R)-2-[(1S,3R,4R)-4-(2-hydroxyethoxy)-3-methoxycyclohexyl]-1-methylethyl}-19,30-dimethoxy-15,17,21,23,29,35-hexamethyl-11,36-dioxa-4-aza-tricyclo[30.3.1.04,9]hexatriaconta-16,24,26,28-tetraene-2,3,10,14,20-pentaone]?
**A.** Percentage of subjects who seroconvert to heterologous strain A/H3N2 A/Victoria/361/11 ([1]; 0.5 mg daily): 38%; Percentage of subjects who seroconvert to heterologous strain A/H3N2 A/Victoria/361/11 ([1]; 5 mg weekly): 39%*; Percentage of subjects who seroconvert to heterologous strain A/H3N2 A/Victoria/361/11 ([1]; 20 mg weekly): 40%*; increase in HI GMT ratio for heterologous strain versus placebo ([1]; RAD001 cohorts): higher; H3N2 heterologous strain seroconversion rate ([1]; pooled RAD001 cohorts, versus 20% placebo, p=0.007): 39%; Treatment-related AE incidence: Blood cholesterol increased ([2]; 0.5 mg daily): 2 (3.8%) n (%); Treatment-related AE incidence: Conjunctivitis ([2]; 0.5 mg daily): 0 n (%); Treatment-related AE incidence: Diarrhea ([2]; 0.5 mg daily): 1 (1.9%) n (%); Treatment-related AE incidence: Dry mouth ([2]; 0.5 mg daily): 0 n (%); Treatment-related AE incidence: Dyspepsia ([2]; 0.5 mg daily): 0 n (%); Treatment-related AE incidence: Erythema ([2]; 0.5 mg daily): 0 n (%); Treatment-related AE incidence: Fatigue ([2]; 0.5 mg daily): 0 n (%); Treatment-related AE incidence: Headache ([2]; 0.5 mg daily): 0 n (%); Treatment-related AE incidence: Insomnia ([2]; 0.5 mg daily): 1 (1.9%) n (%); Treatment-related AE incidence: Limb discomfort ([2]; 0.5 mg daily): 0 n (%); Treatment-related AE incidence: Low density lipoprotein increased ([2]; 0.5 mg daily): 2 (3.8%) n (%); Treatment-related AE incidence: Mouth ulceration ([2]; 0.5 mg daily): 6 (11.3%) n (%); Treatment-related AE incidence: Mucosal inflammation ([2]; 0.5 mg daily): 0 n (%); Treatment-related AE incidence: Neutropenia ([2]; 0.5 mg daily): 0 n (%); Treatment-related AE incidence: Oral pain ([2]; 0.5 mg daily): 0 n (%); Treatment-related AE incidence: Paresthesia oral ([2]; 0.5 mg daily): 2 (3.8%) n (%); Treatment-related AE incidence: Pruritus ([2]; 0.5 mg daily): 0 n (%); Treatment-related AE incidence: Stomatitis ([2]; 0.5 mg daily): 0 n (%); Treatment-related AE incidence: Thrombocytopenia ([2]; 0.5 mg daily): 0 n (%); Treatment-related AE incidence: Tongue ulceration ([2]; 0.5 mg daily): 3 (5.7%) n (%); Treatment-related AE incidence: Urinary tract infection ([2]; 0.5 mg daily): 0 n (%); Treatment-related AEs: Patients with AE(s) ([2]; 0.5 mg daily): 22 (41.5%) n (%); Treatment-related AEs: Total AE(s) ([2]; 0.5 mg daily): 35 n (%); Treatment-related AE incidence: Blood cholesterol increased ([2]; 5 mg weekly): 2 (3.8%) n (%); Treatment-related AE incidence: Conjunctivitis ([2]; 5 mg weekly): 2 (3.8%) n (%); Treatment-related AE incidence: Diarrhea ([2]; 5 mg weekly): 4 (7.5%) n (%); Treatment-related AE incidence: Dry mouth ([2]; 5 mg weekly): 0 n (%); Treatment-related AE incidence: Dyspepsia ([2]; 5 mg weekly): 3 (5.7%) n (%); Treatment-related AE incidence: Erythema ([2]; 5 mg weekly): 2 (3.8%) n (%); Treatment-related AE incidence: Fatigue ([2]; 5 mg weekly): 2 (3.8%) n (%); Treatment-related AE incidence: Headache ([2]; 5 mg weekly): 2 (3.8%) n (%); Treatment-related AE incidence: Insomnia ([2]; 5 mg weekly): 2 (3.8%) n (%); Treatment-related AE incidence: Limb discomfort ([2]; 5 mg weekly): 2 (3.8%) n (%); Treatment-related AE incidence: Low density lipoprotein increased ([2]; 5 mg weekly): 1 (1.9%) n (%); Treatment-related AE incidence: Mouth ulceration ([2]; 5 mg weekly): 2 (3.8%) n (%); Treatment-related AE incidence: Mucosal inflammation ([2]; 5 mg weekly): 0 n (%); Treatment-related AE incidence: Neutropenia ([2]; 5 mg weekly): 0 n (%); Treatment-related AE incidence: Oral pain ([2]; 5 mg weekly): 2 (3.8%) n (%); Treatment-related AE incidence: Paresthesia oral ([2]; 5 mg weekly): 0 n (%); Treatment-related AE incidence: Pruritus ([2]; 5 mg weekly): 2 (3.8%) n (%); Treatment-related AE incidence: Stomatitis ([2]; 5 mg weekly): 0 n (%); Treatment-related AE incidence: Thrombocytopenia ([2]; 5 mg weekly): 0 n (%); Treatment-related AE incidence: Tongue ulceration ([2]; 5 mg weekly): 1 (1.9%) n (%); Treatment-related AE incidence: Urinary tract infection ([2]; 5 mg weekly): 0 n (%); Treatment-related AEs: Patients with AE(s) ([2]; 5 mg weekly): 20 (37.7%) n (%); Treatment-related AEs: Total AE(s) ([2]; 5 mg weekly): 46 n (%); Treatment-related AE incidence: Blood cholesterol increased ([2]; 20 mg weekly): 2 (3.8%) n (%); Treatment-related AE incidence: Conjunctivitis ([2]; 20 mg weekly): 0 n (%); Treatment-related AE incidence: Diarrhea ([2]; 20 mg weekly): 1 (1.9%) n (%); Treatment-related AE incidence: Dry mouth ([2]; 20 mg weekly): 2 (3.8%) n (%); Treatment-related AE incidence: Dyspepsia ([2]; 20 mg weekly): 2 (3.8%) n (%); Treatment-related AE incidence: Erythema ([2]; 20 mg weekly): 0 n (%); Treatment-related AE incidence: Fatigue ([2]; 20 mg weekly): 4 (7.5%) n (%); Treatment-related AE incidence: Headache ([2]; 20 mg weekly): 9 (17.0%) n (%); Treatment-related AE incidence: Insomnia ([2]; 20 mg weekly): 1 (1.9%) n (%); Treatment-related AE incidence: Limb discomfort ([2]; 20 mg weekly): 0 n (%); Treatment-related AE incidence: Low density lipoprotein increased ([2]; 20 mg weekly): 2 (3.8%) n (%); Treatment-related AE incidence: Mouth ulceration ([2]; 20 mg weekly): 9 (17.0%) n (%); Treatment-related AE incidence: Mucosal inflammation ([2]; 20 mg weekly): 2 (3.8%) n (%); Treatment-related AE incidence: Neutropenia ([2]; 20 mg weekly): 3 (5.7%) n (%); Treatment-related AE incidence: Oral pain ([2]; 20 mg weekly): 1 (1.9%) n (%); Treatment-related AE incidence: Paresthesia oral ([2]; 20 mg weekly): 0 n (%); Treatment-related AE incidence: Pruritus ([2]; 20 mg weekly): 1 (1.9%) n (%); Treatment-related AE incidence: Stomatitis ([2]; 20 mg weekly): 2 (3.8%) n (%); Treatment-related AE incidence: Thrombocytopenia ([2]; 20 mg weekly): 2 (3.8%) n (%); Treatment-related AE incidence: Tongue ulceration ([2]; 20 mg weekly): 0 n (%); Treatment-related AE incidence: Urinary tract infection ([2]; 20 mg weekly): 2 (3.8%) n (%); Treatment-related AEs: Patients with AE(s) ([2]; 20 mg weekly): 27 (50.9%) n (%); Treatment-related AEs: Total AE(s) ([2]; 20 mg weekly): 109 n (%); tolerability ([2]; 6 weeks, particularly the 0.5 mg daily and 5 mg weekly dosing regimens): well tolerated; deaths during the study ([2]; all cohorts): No deaths; severe AEs assessed as related to RAD001 ([2]; mouth ulcers, subject treated with 20 mg weekly): one; self-reported energy and exercise ability compared to placebo [3]: increased energy and exercise ability; percentage of PD-1 negative CD4 T cells compared to placebo ([4]; RAD001 cohorts): increased; percentage of CD4 PD-1 positive T cells ([4]; week 6 and 12, all RAD001 cohorts): decreased from baseline; percentage of CD8 PD-1 positive cells ([4]; week 6 and 12, two lower dose RAD001 cohorts): decreased from baseline; primary endpoint (>=1.2-fold GMT increase relative to placebo in at least 2 of 3 strains) ([5]; 0.5 mg daily or 5 mg weekly): met the GMT primary endpoint; primary endpoint (>=1.2-fold GMT increase relative to placebo in at least 2 of 3 strains) ([5]; 20 mg weekly): not higher dose (20 mg weekly) cohort met the primary endpoint; also recorded: unlike the 20 mg weekly dose, met the GMT primary endpoint; increase in titers in subgroup versus ITT population ([5]; subjects with low baseline influenza titers (<=1:40)): greater RAD001-associated increase in titers; decrease in PD-1+ CD4 T cells compared to placebo [6, 8]: 30.2%; decrease in PD-1-positive CD8 T cells compared to placebo [6, 8]: 37.4%; decrease in PD-1-positive CD4 T cells compared to placebo [6, 9]: 32.7%; decrease in PD-1-positive CD8 T cells compared to placebo [6, 9]: 41.4%; decrease in PD-1-positive CD4 T cells as compared to placebo [6, 10]: −37.1-−28.5%; decrease in PD-1-positive CD8 T cells as compared to placebo [6, 10]: −43.3-−38.5%; increase in PD-1-negative CD4 T cells as compared to placebo [6, 10]: 3.0-4.9%; trough level of RAD001 ([7]; 10 mg daily oncology dosing regimen): approximately 20 ng/ml; trough level of RAD001 ([7]; 0.75-1.5 mg bid transplant dosing regimen): approximately 3 ng/ml
